# Read-outs that look alike come from different tables or passages of the source. Starred links: 1 amine or outer side, 2 acyl side, 3 side chain; linkers in the order of their positions; H or OH if unused. Positions of bridges follow the written chain, without caps; N, C: chain ends. Non-standard residues stand in square brackets, D forms with d. Residues, ends and D or L forms follow the SMILES beside them. ξ: configuration not given here. Adda = CO[C@@H](Cc1ccccc1)[C@@H](C)/C=C(C)/C=C/[C@H](N[*:1])[C@H](C)C(=O)[*:2]; Trp(2-yl) = O=C([C@H](Cc1c([*:3])[nH]c2ccccc12)N[*:1])[*:2]; dAsp(3S-Me) = C[C@H](C(=O)[*:3])[C@@H](N[*:1])C(=O)[*:2]; ξTrp(2-yl) = O=C(C(Cc1c([*:3])[nH]c2ccccc12)N[*:1])[*:2]; Leu(4R-OH,5-OH) = C[C@](O)(CO)C[C@H](N)C(=O)O; d(γGlu) = O=C(O)[C@@H](CCC(=O)[*:2])N[*:1]; X1 = CC(O)(CO)CC(N[*:1])C(=O)[*:2]; cisHyp = O=C(O)[C@@H]1C[C@H](O)CN1; ξAsp(3ξ-OH) = NC(C(=O)O)C(O)C(=O)O; Hyp = O=C(O)[CH]1C[CH](O)CN1; NMeDha = C=C(NC)C(=O)O
# Key:
# [1] = tested on: mAb 9G3.2; type: binding, mouse; conditions: for competitive inhibition of mAb 9G3.2: cELISA, up to 1,000 ng/mL; for recognition by mAb 9G3.2: statement of deposit
# [2] = tested on: mAb 9C12.2; type: binding, mouse; conditions: for competitive inhibition of mAb 9C12.2: cELISA, up to 1,000 ng/mL; for recognition by mAb 9C12.2: statement of deposit
# [3] = tested on: mAb AMA9G3; type: binding, mouse; design: concentration at which test strips detect: unit not given here; conditions: for concentration giving complete inhibition of the signal: either hapten as test line; for CR (cross-reactivity): lateral flow test strips
# [4] = tested on: Previously described mAbs to amatoxins; conditions: He et al; cited from earlier work
# [5] = mAb 9G3.2, (IC50 α-AMA)/(IC50 test inhibitor)×100
# [6] = mAb 9G3.2, inhibitor mixed with antibody, PERI-AMA-BSA coated plate
# [7] = mAb 9C12.2, (IC50 α-AMA)/(IC50 test inhibitor)×100
# [8] = mAb 9C12.2, inhibitor mixed with antibody, PERI-AMA-BSA coated plate
# [9] = cross-reactivity with near neighbor compounds
Compound,Cross reactivity [1],IC50 [1],Cross reactivity [2],IC50 [2],detection by test strips [3],"Cross reactivity [1, 5]","IC50 [1, 6]","Cross reactivity [2, 7]","IC50 [2, 8]","detection by test strips [3, 9]",competitive inhibition of mAb 9G3.2 [1],recognition by mAb 9G3.2 [1],competitive inhibition of mAb 9C12.2 [2],concentration giving complete inhibition of the signal [3],recognition by mAb 9C12.2 [2],"concentration at which test strips detect [3, 9]",CR (cross-reactivity) [3],IC50 of previously described mAbs [4]
C/C=C1/C(=O)N[C@@H](C(=O)O)[C@H](C)C(=O)N[C@@H](CCCNC(=N)N)C(=O)N[C@@H](/C=C/C(C)=C/[C@H](C)[C@H](Cc2ccccc2)OC)[C@H](C)C(=O)N[C@@H](C(=O)O)CCC(=O)N1C [nodularin],<0.3%,>1 µg/mL,<0.3%,>1 µg/mL,did not detect,–,–,–,–,–,–,–,–,–,–,–,–,–
NCc1cc(=O)[nH]o1 [muscimol],–,–,–,–,–,<0.3%,>1 µg/mL,<0.3%,>1 µg/mL,did not detect,–,–,–,–,–,–,–,–
γ-amanitin,–,–,–,–,–,96%,0.00163 ± 0.00021 µg/mL,115%,0.0023 ± 0.00031 µg/mL,–,competitively inhibited,recognizes,competitively inhibited,10 ng/mL,–,–,–,–
β-amanitin,–,–,–,–,–,6.5%,0.0242 ± 0.0062 µg/mL,<0.3%,>1 µg/mL,–,competitively inhibited,recognizes,no reduction in signal response,–,recognizes,–,–,–
CC1NC(=O)C2CC(O)CN2C(=O)C2CSc3[nH]c4ccccc4c3CC(NC1=O)C(=O)NC(CC(C)(O)CO)C(=O)NC(C(C)C)C(=O)NC(C(O)C(=O)O)C(=O)N2 (stereo not drawn) [phallacidin] (cyclo([ξAsp(3ξ-OH)]C[Hyp]A[ξTrp(2-yl)][X1]V); thioether 2-5; configuration not given here),–,–,–,–,–,<0.3%,>1 µg/mL,<0.3%,>1 µg/mL,–,–,–,–,–,–,200,0.005%,–
N[C@H](C(=O)O)c1cc(=O)[nH]o1 [ibotenic acid],–,–,–,–,–,<0.3%,>1 µg/mL,<0.3%,>1 µg/mL,did not detect,–,–,–,–,–,–,–,–
CC[C@H](C)[C@@H]1NC(=O)CNC(=O)[C@@H]2Cc3c([nH]c4cc(O)ccc34)[S+]([O-])C[C@@H](NC(=O)CNC1=O)C(=O)N[C@@H](CC(N)=O)C(=O)N1C[C@H](O)C[C@H]1C(=O)N[C@@H]([C@@H](C)[C@@H](O)CO)C(=O)N2 (stereo in doubt) [α-amanitin],–,–,–,–,–,100%,0.00157 µg/mL,100%,0.00266 ± 0.00018 µg/mL,–,competitively inhibited,recognizes,competitively inhibited,10 ng/mL,recognizes,–,–,0.066 µg/mL
"C[C@@H]1NC(=O)[C@H](C[C@@](C)(O)CO)NC(=O)[C@@H]2Cc3c([nH]c4ccccc34)SC[C@H](NC(=O)[C@@H]([C@H](C)O)NC1=O)C(=O)N1C[C@@H](O)C[C@H]1C(=O)N[C@@H](C)C(=O)N2 [phalloidin] (cyclo(A[dT]C[cisHyp]A[Trp(2-yl)][Leu(4R-OH,5-OH)]); thioether 3-6)",–,–,–,–,–,<0.3%,>1 µg/mL,<0.3%,>1 µg/mL,–,–,–,–,–,–,–,0.005%,–
C=C1C(=O)N[C@H](C)C(=O)N[C@@H](CC(C)C)C(=O)N[C@@H](C(=O)O)[C@H](C)C(=O)N[C@@H](CCCNC(=N)N)C(=O)N[C@@H](/C=C/C(C)=C/[C@H](C)[C@H](Cc2ccccc2)OC)[C@H](C)C(=O)N[C@@H](C(=O)O)CCC(=O)N1C [microcystin-LR] (R[Adda][d(γGlu)][NMeDha][dA]L[dAsp(3S-Me)]-OH; lactam N-7),<0.3%,>1 µg/mL,<0.3%,>1 µg/mL,did not detect,–,–,–,–,–,–,–,–,–,–,–,–,–
